Values of other authors, collected in patent US20030013675A1 (Boehringer Ingelheim Pharma KG, priority 2001, published 2003).

Columns and labels:
[1] = test system: Human Neutrophils
[2] = test system: adherent human monocyte; conditions: in particular human peripheral blood monocyte
[3] = test system: antigen-challenged pig; conditions: in vivo
[4] = inhaled at several times the recommended dose
[5] = test system: guinea pig eosinophils

For `CCNC(=O)[C@H]1OC(n2cnc3c(N)nc(NCCc4ccc(CCC(=O)O)cc4)nc32)[C@H](O)[C@@H]1O` (stereo partly shown) [CGS 21680], the neutrophil superoxidase release [1] is listed as “inhibits” and the “endotoxin-stimulated adherent human monocyte TNFα production” value [2] is listed as “decreases”.

For `CCCn1c(=O)c2c(C)nc(CC)n2c2nc(OC)ccc21` [Example D-22888], the antiallergic effect [3] is listed as “strong antiallergic affect” and the “rhinorrhea in the antigen-challenged pig” value [3] is listed as “inhibit rhinorrhea”.

For `CC[N+]1(C)[C@@H]2CC(OC(=O)[C@H](CO)c3ccccc3)C[C@H]1[C@@H]1O[C@@H]12` (stereo partly shown) [oxitropium], the “change in heart rate, blood pressure, bladder function, intraocular pressure, or pupillary diameter” value [4] is listed as “little or no change”.

For `CCNC(=O)[C@@H]1O[C@H](n2cnc3c(N)ncnc32)[C@@H](O)[C@H]1O` [NECA], the “zymosan-stimulated oxidative activity in guinea pig eosinophils” value [5] is given as “inhibits”.

For `C[N+]1(C)[C@@H]2C[C@@H](OC(=O)C(O)(c3cccs3)c3cccs3)C[C@H]1[C@@H]1O[C@@H]12` [tiotropium, (1α, 2β, 4β, 5α, 7β)-7-[(hydroxydi-2-thienylacetyl)oxy]-9,9-dimethyl-3-oxa-9-azoniatricyclo[3.3.1.0^2,4]nonane bromide], the “change in heart rate, blood pressure, bladder function, intraocular pressure, or pupillary diameter” value [4] is given as “little or no change”.
